Experimental data reported in publication PMC10115881, “Disrupting the α-synuclein-ESCRT interaction with a peptide inhibitor mitigates neurodegeneration in preclinical models of Parkinson’s disease” (Nature Communications, 2023).

What was measured:
Assay type in all cases: cell-based, human
[1] = system: WT a-syn expressing HEK293 cells; test: Cell Titer-Glo cell viability, WT a-syn expressing cells; details: WT alpha-synuclein; for Cell viability: MG132 10 μM, 72 h; for cell viability effect of peptides: Supp Figure 1A;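 as to cell viability effect of peptides: measured without MG132 proteasome inhibitor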
Method: (§1) Oligonucleotides encoding the specific peptides were synthesized and individually cloned into the pLJM1 nGFP lentiviral vector. HEK293T cells were infected with individual constructs, and cell viability was assessed using Cell Titer-Glo luminescent assay (Promega) at 72 h post infection.
(§2) Cells were trypsinized from subconfluent cultures as described earlier, suspended in culture media, and then seeded into triplicate wells of a 96-well plate (100 µl/well) at a density of 1.5 × 10^4 cells per well with standard culture conditions of 5% CO2 at 37 °C. Cells were infected with lentivirus expressing peptide at a MOI of 5 for 72 h or transfected with plasmid for 72 h. Cell Titer-Glo reagent was added to each well (30 µL), according to the manufacturer’s protocol and […].

[2] = system: A53T a-syn expressing HEK293 cells; test: Cell Titer-Glo cell viability, A53T a-syn expressing cells; details: for cell viability effect of peptides: A53T a-syn, Supp Figure 1A; for Cell viability: A53T, MG132 10 μM, 72 h; for Effect of MIM motif peptides on cell viability in A53T a-syn expressing cells: Supp Figure 1H
Method: as §1, §2

A53T a-syn oligomers [3] = test: Luciferase PCA of A53T a-syn oligomers; details: for Effect on A53T a-syn oligomers: luciferase PCA, n=3
Method: as §1
(§3) Tet-off HEK293 cells stably expressing split luciferase-a-syn constructs and tet-off parent HEK293 cell lines were maintained in DMEM supplemented with 10% FBS and 1% pen/strep/glutamine. […] Cells were trypsinized from subconfluent culture and seeded in a 96-well plate at a density of 15,000 cells per well. Cells were incubated overnight at 37 °C in 5% CO2. Cells were transfected with GFP-peptide plasmids. After 6 h of incubation, 20 µL of cell medium was transferred to a black flat-bottomed 96-well plate. Fifty microliters of Working solution (Pierce Gaussia-Firefly Luciferase Dual Assay Kit, Thermo Scientific, 16181) were added into each well containing cell medium. Immediately after adding the reagent, samples were read using a luminometer with a 480 nm filter.

WT a-syn oligomers = test: Luciferase PCA of WT a-syn oligomers; details: for Oligomers %: WT oligomers, luciferase activity; for Effect on WT a-syn oligomers: luciferase PCA
Method: as §1, §3

Parent HEK293 cells = test: Cell Titer-Glo cell viability, parent cells; details: for Cell viability: MG132 10 μM, 72 h; for cell viability effect of peptides: Supp Figure 1A;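 as to cell viability effect of peptides: measured without MG132 proteasome inhibitor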
Method: as §1, §2

A53T a-syn oligomers [4] = test: Split-YFP PCA/FACS screen of A53T a-syn oligomers
Source text: We used a lentiviral library of 50,549 7-mer peptides enriched in PPI motifs[13] on a green fluorescent protein (GFP) scaffold (Fig. 1A). We infected cells in a pooled format and the amino acid sequence of each peptide served as its own barcode. By using a low multiplicity of infection followed by puromycin selection, each infected cell expressed one unique GFP-peptide. We screened for peptides that reduced a-syn-mediated cytotoxicity or a-syn oligomers in parallel (Fig. 1A). To cause cytotoxicity relevant to PD, we induced proteostatic stress in HEK293 cells by inhibiting the proteasome with MG132 and overexpressing human WT a-syn associated with idiopathic PD in one screen or the more toxic mutant A53T a-syn associated with familial PD in a second screen. This combination of a-syn overexpression and pharmacological proteasome inhibition led to death of most cells, with only those that expressed a protective peptide surviving. By extracting genomic DNA from the surviving cells and amplifying the peptide coding sequences, we identified the protective peptides (Fig. 1A). To detect a-syn oligomers, we used a protein fragment complementation assay (PCA) of a-syn oligomerization in HEK293 cells. In this assay, human A53T a-syn was fused to either the C- or N-terminal half of yellow fluorescent protein (YFP). No fluorescence is detectable while a-syn exists in monomers but, when a-syn oligomerizes, the two halves of YFP come in close enough proximity to form a functional, spontaneously fluorescent protein. […] Our screens yielded 10 hits (Table S1). The hit with the most reads (i.e., the most abundant) was the same peptide in all screens: IPIQLKA (named PDpep1) (Table S1). We validated the cytoprotective effects of PDpep1 in HEK293 cells overexpressing WT or A53T a-syn (Figs. 1B, S1A), as well as its ability to reduce WT or A53T a-syn oligomers in a luciferase-based PCA[18]–[20] compared to a scrambled control peptide (Figs. 1C, S1B).
HEK293T cells (ATCC, CRL-3216) were maintained in DMEM supplemented with 10% FBS and 1% pen/strep/glutamine, and the appropriate selection antibiotics when required. Lentiviruses were made in a 15 cm dish format by transfecting packaging cells (HEK293T) with a three-plasmid system (expression vector, psPAX2 and pMD2.G) and using Polyjet DNA transfection reagent (FroggaBio, SL100688.1). Viral transduction of HEK293T cells were performed with a multiplicity of infection (MOI) of 0.3. Infected cells were selected in puromycin-containing medium to eliminate uninfected cells and three aliquots of cells were collected for sampling of the initial (T0) cell population. Cells were treated with MG132 at concentrations of 0, 10, 25, or 50 µM. For the cell viability screen, surviving cells were collected and gDNA was extracted for identification of peptide inhibitors of cell toxicity. For the inhibition of a-syn aggregation screen, a protein fragment complementation assay (PCA) was used by transfecting cells with split YFP-a-syn constructs following stable expression of the peptides. Cells were sorted based on their YFP fluorescence intensities with a FACSVantage SE cell sorter (BD Bioscience) and gDNA was extracted for identification of peptides.
Cells were harvested by trypsin treatment and centrifuged at 500 × g for 5 min. The pellet was resuspended in ice-cold PBS and centrifuged again. The pellet was then resuspended at a concentration of 4 × 10^6 cells/ml in the sorting buffer, which is PBS containing 100 Kunitz DNase I/ml, 10 μg/ml propidium iodide (Sigma), and 2% FBS. The cells were then sent through a 40 μm filter to remove large clumps and loaded into either a FACScan Flow Cytometer (BD Bioscience) for cell analysis or a FACSVantage SE cell sorter (BD Bioscience) for cell sorting. The cells with positive propidium iodide staining (i.e., dead cells) were first eliminated from the analysis. […]

A53T a-syn = A53T a-syn protein level in HEK293 cells by immunoblot
Method: Infected or transfected cells were scraped from six-well dishes and lysed with lysis buffer (50 mM Tris-HCl pH 7.4, 1% Nonidet P-40, 150 mM NaCl, 1 mM EDTA, 1× protease inhibitor mixture (Sigma)) for 30 min at 4 °C. The insoluble pellet was removed following a 10,000 rpm spin for 5 min at 4 °C. Lysates were analyzed by SDS-PAGE/immunoblot using 4–20% Mini-PROTEAN Tris-glycine gels (Bio-Rad), transferred to polyvinylidene fluoride (PVDF) membranes, and blocked in 5% milk containing PBS-Tween-20 (0.1%) for 1 h. PVDF membranes were then incubated with specified primary antibodies followed by incubation with horseradish peroxidase-conjugated secondary antibodies (anti-mouse HRP-linked, Cell Signaling, catalog #7076, 1:5000; anti-rabbit HRP-linked, Cell Signaling, catalog #7074, 1:5000) and detected using enhanced chemiluminescence (GE Healthcare). Anti-a-syn antibody (clone 42) was obtained from BD Biosciences (catalog #610787, 1:1000). Anti-LAMP1 antibody was obtained from Abcam (catalog #ab24170, 1:500). Anti-beta-actin antibody was obtained from Cell Signaling (13E5) (catalog #4970, 1:1000). Anti-CD63 antibody was obtained from R&D Systems (catalog #MAB50482-SP, 1:1000).

EIERQLKALG [PDpep1.2]
Cell viability ([1]; replicate 1): 4000 | Cell viability ([1]; replicate 2): 4200 | Cell viability ([1]; replicate 3): 4500 | cell viability effect of peptides ([1]; replicate 1): 13200 | cell viability effect of peptides ([1]; replicate 2): 13400 | cell viability effect of peptides ([1]; replicate 3): 13100 | cell viability effect of peptides ([2]; replicate 1): 14600 | cell viability effect of peptides ([2]; replicate 2): 15600 | cell viability effect of peptides ([2]; replicate 3): 14800 | Cell viability ([2]; replicate 1): 7500 | Cell viability ([2]; replicate 2): 6200 | Cell viability ([2]; replicate 3): 6500 | Effect of MIM motif peptides on cell viability in A53T a-syn expressing cells ([2]; replicate 1): 6674 | Effect of MIM motif peptides on cell viability in A53T a-syn expressing cells ([2]; replicate 2): 6850 | Effect of MIM motif peptides on cell viability in A53T a-syn expressing cells ([2]; replicate 3): 6527 | Effect on A53T a-syn oligomers (A53T a-syn oligomers [3]): significant reduction in A53T a-syn oligomers | A53T a-syn oligomers as measured by luciferase activity (A53T a-syn oligomers [3]; replicate 1): 251502 | A53T a-syn oligomers as measured by luciferase activity (A53T a-syn oligomers [3]; replicate 2): 281836 | A53T a-syn oligomers as measured by luciferase activity (A53T a-syn oligomers [3]; replicate 3): 251716 | Oligomers % (WT a-syn oligomers; column 1): 104.991% | Oligomers % (WT a-syn oligomers; column 2): 81.7556% | Oligomers % (WT a-syn oligomers; column 3): 72.2892% | Oligomers % (WT a-syn oligomers; column 4): 74.8709% | Oligomers % (WT a-syn oligomers; column 5): 62.3924% | Effect on WT a-syn oligomers (WT a-syn oligomers): significant reduction in a-syn oligomers | Cell viability (Parent HEK293 cells; replicate 1): 4500 | Cell viability (Parent HEK293 cells; replicate 2): 5400 | Cell viability (Parent HEK293 cells; replicate 3): 4100 | cell viability effect of peptides (Parent HEK293 cells; replicate 1): 12600 | cell viability effect of peptides (Parent HEK293 cells; replicate 2): 12500 | cell viability effect of peptides (Parent HEK293 cells; replicate 3): 13000

IERQLKA [PDpep1.1]
Cell viability ([1]; replicate 1): 4800 | Cell viability ([1]; replicate 2): 4300 | Cell viability ([1]; replicate 3): 4100 | cell viability effect of peptides ([1]; replicate 1): 13800 | cell viability effect of peptides ([1]; replicate 2): 13400 | cell viability effect of peptides ([1]; replicate 3): 12900 | cell viability effect of peptides ([2]; replicate 1): 13600 | cell viability effect of peptides ([2]; replicate 2): 13400 | cell viability effect of peptides ([2]; replicate 3): 12400 | Cell viability ([2]; replicate 1): 6400 | Cell viability ([2]; replicate 2): 6200 | Cell viability ([2]; replicate 3): 6100 | Effect of MIM motif peptides on cell viability in A53T a-syn expressing cells ([2]; replicate 1): 6738 | Effect of MIM motif peptides on cell viability in A53T a-syn expressing cells ([2]; replicate 2): 6300 | Effect of MIM motif peptides on cell viability in A53T a-syn expressing cells ([2]; replicate 3): 6152 | Effect on A53T a-syn oligomers (A53T a-syn oligomers [3]): significant reduction in A53T a-syn oligomers | A53T a-syn oligomers as measured by luciferase activity (A53T a-syn oligomers [3]; replicate 1): 261554 | A53T a-syn oligomers as measured by luciferase activity (A53T a-syn oligomers [3]; replicate 2): 321472 | A53T a-syn oligomers as measured by luciferase activity (A53T a-syn oligomers [3]; replicate 3): 271592 | Oligomers % (WT a-syn oligomers; column 1): 106.713% | Oligomers % (WT a-syn oligomers; column 2): 81.3253% | Oligomers % (WT a-syn oligomers; column 3): 66.2651% | Oligomers % (WT a-syn oligomers; column 4): 77.4527% | Oligomers % (WT a-syn oligomers; column 5): 64.5439% | Effect on WT a-syn oligomers (WT a-syn oligomers): significant reduction in a-syn oligomers | Cell viability (Parent HEK293 cells; replicate 1): 3550 | Cell viability (Parent HEK293 cells; replicate 2): 3700 | Cell viability (Parent HEK293 cells; replicate 3): 3800 | cell viability effect of peptides (Parent HEK293 cells; replicate 1): 12600 | cell viability effect of peptides (Parent HEK293 cells; replicate 2): 12000 | cell viability effect of peptides (Parent HEK293 cells; replicate 3): 12700

VYLDILG [library 7-mer, oligomers screen]
Reads GFP High (A53T a-syn oligomers [4]): 1 | Reads GFP Inter (A53T a-syn oligomers [4]): 0 | Reads GFP Neg (A53T a-syn oligomers [4]): 59 | Reads Ratio (A53T a-syn oligomers [4]): 30.55

CHMP2B 1-199: truncated version of CHMP2B (amino acids 1–199), in which the MIM is removed
Effect on A53T a-syn protein level (A53T a-syn): reduction in a-syn | Effect on cell survival/viability ([2]; A53T a-syn cells): rescues toxicity

MQMKLSQ [library 7-mer, oligomers screen]
Reads GFP High (A53T a-syn oligomers [4]): 1 | Reads GFP Inter (A53T a-syn oligomers [4]): 0 | Reads GFP Neg (A53T a-syn oligomers [4]): 70 | Reads Ratio (A53T a-syn oligomers [4]): 36.15
